Assay results published in article PMC6138237, “Machine intelligence decrypts β-lapachone as an allosteric 5-lipoxygenase inhibitor” (Chemical Science, 2018).
Where two headings read alike, the source gives them in different places.

Tests used:
Assay type in all cases: biochemical
NEK2 = target: T1, NEK2 (Homo sapiens, UniProt P51955); experiment: ExpresS Diversity Kinase Profile, Cerep (LANCE): NEK2
T1 sequence (P51955 1-445): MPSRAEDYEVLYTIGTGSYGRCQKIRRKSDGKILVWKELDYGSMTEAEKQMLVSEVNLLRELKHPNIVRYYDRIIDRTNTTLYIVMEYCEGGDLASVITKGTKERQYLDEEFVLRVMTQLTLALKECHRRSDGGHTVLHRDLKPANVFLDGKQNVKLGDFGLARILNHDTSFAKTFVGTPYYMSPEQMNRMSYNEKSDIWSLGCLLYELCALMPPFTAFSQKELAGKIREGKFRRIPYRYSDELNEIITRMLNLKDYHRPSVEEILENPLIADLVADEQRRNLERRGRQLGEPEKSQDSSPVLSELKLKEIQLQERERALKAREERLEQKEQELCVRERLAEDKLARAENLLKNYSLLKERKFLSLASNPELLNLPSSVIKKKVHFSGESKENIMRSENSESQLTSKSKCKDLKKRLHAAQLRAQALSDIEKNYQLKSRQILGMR

EphB4 = target: T2, EphB4 (Homo sapiens, UniProt P54760); experiment: ExpresS Diversity Kinase Profile, Cerep (LANCE): EphB4
T2 sequence (P54760 16-987): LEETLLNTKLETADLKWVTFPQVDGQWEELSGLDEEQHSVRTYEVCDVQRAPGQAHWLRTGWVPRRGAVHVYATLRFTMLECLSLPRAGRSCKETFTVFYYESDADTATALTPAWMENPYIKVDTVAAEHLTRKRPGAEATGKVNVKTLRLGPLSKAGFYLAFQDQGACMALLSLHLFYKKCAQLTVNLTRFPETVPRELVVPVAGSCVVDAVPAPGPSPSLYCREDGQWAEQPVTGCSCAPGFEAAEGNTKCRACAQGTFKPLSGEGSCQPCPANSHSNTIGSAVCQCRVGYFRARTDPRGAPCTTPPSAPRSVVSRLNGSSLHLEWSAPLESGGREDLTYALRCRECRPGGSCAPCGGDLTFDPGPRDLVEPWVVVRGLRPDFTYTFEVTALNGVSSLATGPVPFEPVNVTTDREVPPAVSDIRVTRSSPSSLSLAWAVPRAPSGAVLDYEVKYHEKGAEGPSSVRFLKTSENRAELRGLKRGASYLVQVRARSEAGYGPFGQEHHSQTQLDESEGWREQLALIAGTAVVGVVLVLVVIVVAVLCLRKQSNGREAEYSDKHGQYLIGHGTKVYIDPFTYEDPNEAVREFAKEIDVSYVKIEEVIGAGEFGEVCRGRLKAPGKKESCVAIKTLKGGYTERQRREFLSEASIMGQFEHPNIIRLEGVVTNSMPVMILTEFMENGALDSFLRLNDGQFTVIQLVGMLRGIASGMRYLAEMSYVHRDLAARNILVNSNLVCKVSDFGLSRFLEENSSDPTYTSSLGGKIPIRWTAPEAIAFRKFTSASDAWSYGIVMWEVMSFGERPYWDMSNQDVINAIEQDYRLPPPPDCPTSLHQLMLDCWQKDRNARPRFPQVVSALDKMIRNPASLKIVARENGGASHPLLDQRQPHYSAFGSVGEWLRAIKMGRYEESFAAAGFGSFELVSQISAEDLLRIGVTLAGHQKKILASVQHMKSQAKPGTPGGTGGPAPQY

VEGFR2 = VEGFR2 (Homo sapiens, UniProt P35968); experiment: ExpresS Diversity Kinase Profile, Cerep (LANCE): VEGFR2
Chain of VEGFR2 (P35968 20-1356): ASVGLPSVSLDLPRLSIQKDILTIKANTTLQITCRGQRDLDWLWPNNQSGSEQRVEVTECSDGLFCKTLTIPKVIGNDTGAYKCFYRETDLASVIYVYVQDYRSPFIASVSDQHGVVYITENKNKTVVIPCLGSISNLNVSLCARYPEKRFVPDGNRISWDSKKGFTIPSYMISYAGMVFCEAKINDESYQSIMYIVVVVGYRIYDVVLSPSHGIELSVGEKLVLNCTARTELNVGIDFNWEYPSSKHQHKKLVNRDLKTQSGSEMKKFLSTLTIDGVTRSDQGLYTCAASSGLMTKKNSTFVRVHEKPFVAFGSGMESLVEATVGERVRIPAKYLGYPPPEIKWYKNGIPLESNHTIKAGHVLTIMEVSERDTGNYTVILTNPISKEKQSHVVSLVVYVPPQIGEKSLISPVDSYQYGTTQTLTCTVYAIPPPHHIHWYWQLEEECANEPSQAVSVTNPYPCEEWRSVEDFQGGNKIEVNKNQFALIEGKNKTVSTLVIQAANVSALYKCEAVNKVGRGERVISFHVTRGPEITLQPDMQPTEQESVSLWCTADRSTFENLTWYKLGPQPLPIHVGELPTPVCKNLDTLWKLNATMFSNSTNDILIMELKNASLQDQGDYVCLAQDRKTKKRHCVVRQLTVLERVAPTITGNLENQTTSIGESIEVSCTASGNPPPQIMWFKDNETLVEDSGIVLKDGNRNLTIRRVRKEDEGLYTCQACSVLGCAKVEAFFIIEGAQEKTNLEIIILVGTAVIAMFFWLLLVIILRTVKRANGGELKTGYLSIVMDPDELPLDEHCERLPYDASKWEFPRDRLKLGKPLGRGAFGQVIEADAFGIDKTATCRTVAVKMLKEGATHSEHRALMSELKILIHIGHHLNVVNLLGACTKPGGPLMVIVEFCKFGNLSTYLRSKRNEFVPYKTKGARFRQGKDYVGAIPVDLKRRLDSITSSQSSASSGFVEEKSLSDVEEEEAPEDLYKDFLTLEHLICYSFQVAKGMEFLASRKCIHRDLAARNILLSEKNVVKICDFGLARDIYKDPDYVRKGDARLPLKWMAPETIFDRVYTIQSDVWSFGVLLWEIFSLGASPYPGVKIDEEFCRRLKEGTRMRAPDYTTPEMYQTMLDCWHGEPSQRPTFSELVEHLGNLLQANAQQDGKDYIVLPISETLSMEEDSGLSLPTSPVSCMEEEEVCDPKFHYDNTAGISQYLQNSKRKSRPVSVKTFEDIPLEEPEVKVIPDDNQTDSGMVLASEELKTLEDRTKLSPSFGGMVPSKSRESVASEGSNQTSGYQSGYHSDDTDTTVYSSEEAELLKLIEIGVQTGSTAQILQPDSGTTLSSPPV

Src = Src (Homo sapiens, UniProt P12931); experiment: ExpresS Diversity Kinase Profile, Cerep (LANCE): Src
Chain of Src (P12931 whole entry): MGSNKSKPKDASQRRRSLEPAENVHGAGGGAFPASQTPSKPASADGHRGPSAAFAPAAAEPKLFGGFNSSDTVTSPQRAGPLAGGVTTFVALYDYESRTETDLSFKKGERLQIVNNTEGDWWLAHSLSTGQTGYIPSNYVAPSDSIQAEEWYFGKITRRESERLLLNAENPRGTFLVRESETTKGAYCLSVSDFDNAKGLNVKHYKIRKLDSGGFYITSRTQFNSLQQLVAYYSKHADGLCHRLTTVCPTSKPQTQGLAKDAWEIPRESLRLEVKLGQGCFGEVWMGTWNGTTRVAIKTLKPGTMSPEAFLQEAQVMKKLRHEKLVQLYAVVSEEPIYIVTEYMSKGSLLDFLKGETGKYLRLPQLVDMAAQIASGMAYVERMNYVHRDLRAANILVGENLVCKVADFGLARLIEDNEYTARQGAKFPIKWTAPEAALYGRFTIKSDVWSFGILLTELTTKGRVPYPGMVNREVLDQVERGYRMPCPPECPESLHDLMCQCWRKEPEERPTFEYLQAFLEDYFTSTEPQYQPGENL

PKA = PKA (Homo sapiens, UniProt P17612); experiment: ExpresS Diversity Kinase Profile, Cerep (LANCE): PKA
SGK1 = target: T3, SGK1 (Homo sapiens, UniProt O00141); experiment: ExpresS Diversity Kinase Profile, Cerep (LANCE): SGK1
T3 sequence (O00141 1-431): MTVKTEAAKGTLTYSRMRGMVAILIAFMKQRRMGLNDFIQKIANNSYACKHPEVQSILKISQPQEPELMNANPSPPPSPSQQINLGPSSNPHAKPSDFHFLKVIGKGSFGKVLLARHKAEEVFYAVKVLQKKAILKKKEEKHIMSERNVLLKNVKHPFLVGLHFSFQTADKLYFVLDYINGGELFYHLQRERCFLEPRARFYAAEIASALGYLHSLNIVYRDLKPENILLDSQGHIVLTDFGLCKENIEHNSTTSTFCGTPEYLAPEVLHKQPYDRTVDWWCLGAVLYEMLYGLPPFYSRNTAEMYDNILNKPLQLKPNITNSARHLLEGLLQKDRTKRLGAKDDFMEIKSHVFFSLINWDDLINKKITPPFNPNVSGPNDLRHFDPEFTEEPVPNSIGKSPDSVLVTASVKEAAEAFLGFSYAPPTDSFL

PAK2 = PAK2 (Homo sapiens, UniProt Q13177); experiment: ExpresS Diversity Kinase Profile, Cerep (LANCE): PAK2
Chain of PAK2 (Q13177 whole entry): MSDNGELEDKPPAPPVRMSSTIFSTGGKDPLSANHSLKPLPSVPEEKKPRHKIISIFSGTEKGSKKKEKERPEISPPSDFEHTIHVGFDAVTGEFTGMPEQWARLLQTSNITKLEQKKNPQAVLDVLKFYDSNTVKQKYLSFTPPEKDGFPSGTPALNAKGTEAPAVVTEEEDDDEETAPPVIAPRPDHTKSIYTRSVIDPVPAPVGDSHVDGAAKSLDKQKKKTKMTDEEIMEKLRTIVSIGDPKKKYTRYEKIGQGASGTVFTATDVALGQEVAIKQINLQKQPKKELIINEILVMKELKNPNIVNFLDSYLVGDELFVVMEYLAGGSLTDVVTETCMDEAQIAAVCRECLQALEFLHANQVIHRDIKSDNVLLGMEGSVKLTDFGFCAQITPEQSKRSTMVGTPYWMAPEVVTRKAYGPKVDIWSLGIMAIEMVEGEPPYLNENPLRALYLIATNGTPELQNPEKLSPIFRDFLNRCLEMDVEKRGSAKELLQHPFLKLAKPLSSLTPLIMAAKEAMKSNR

IRAK4 = target: T4, IRAK4 (Homo sapiens, UniProt Q9NWZ3); experiment: ExpresS Diversity Kinase Profile, Cerep (LANCE): IRAK4
T4 sequence (Q9NWZ3 1-460): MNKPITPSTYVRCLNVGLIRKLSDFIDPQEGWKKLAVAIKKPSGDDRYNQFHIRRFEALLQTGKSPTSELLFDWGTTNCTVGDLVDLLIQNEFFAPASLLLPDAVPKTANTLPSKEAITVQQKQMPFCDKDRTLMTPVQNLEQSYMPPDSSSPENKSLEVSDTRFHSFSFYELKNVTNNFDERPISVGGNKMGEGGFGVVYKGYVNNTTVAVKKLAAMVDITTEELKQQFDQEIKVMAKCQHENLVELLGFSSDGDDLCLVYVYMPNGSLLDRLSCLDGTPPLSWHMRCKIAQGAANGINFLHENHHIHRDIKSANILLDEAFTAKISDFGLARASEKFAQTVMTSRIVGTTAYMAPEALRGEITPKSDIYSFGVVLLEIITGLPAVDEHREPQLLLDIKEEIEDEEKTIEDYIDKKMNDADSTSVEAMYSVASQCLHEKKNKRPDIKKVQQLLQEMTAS

[1] = Flag: Interference, read-out: % Inhibition of control values, 1st measurement
[2] = Flag: Interference, read-out: % Inhibition of control values, 2nd measurement
[3] = n = 2, Flag: Interference, read-out: % Inhibition of control values, Mean
[4] = n = 2, read-out: % Inhibition of control values, Mean
[5] = read-out: % Inhibition of control values, 1st measurement
[6] = read-out: % Inhibition of control values, 2nd measurement

Work on `CN[C@@H]1C[C@H]2O[C@@](C)([C@@H]1OC)n1c3ccccc3c3c4c(c5c6ccccc6n2c5c31)C(=O)NC4` [Staurosporine, reference compound] yielded a nHill (NEK2; control) of 0.9, a nHill (EphB4; control) of 1.1 and a nHill (VEGFR2; control) of 1.2. For the same compound, the nHill (Src; control) was 1.0, the nHill (PKA; control) was over 3 and the nHill (SGK1; control) was over 3. It also gave a nHill (PAK2; control) of over 3 and a nHill (IRAK4; control) of 0.7.
With `CC1(C)CCC2=C(O1)c1ccccc1C(=O)C2=O` [β-Lapachone] the inhibition at 150 µM (NEK2; [1]) was 19%, the inhibition at 150 µM (NEK2; [2]) was 18.4% and the inhibition at 150 µM (NEK2; [3]) was 18.7%. The inhibition at 150 µM (EphB4; [1]) was 54.6%, the inhibition at 150 µM (EphB4; [2]) was 55.1% and the inhibition at 150 µM (EphB4; [3]) was 54.8%. It also gave an inhibition at 150 µM (VEGFR2; [4]) of 82.3%, an inhibition at 150 µM (VEGFR2; [5]) of 82.7% and an inhibition at 150 µM (VEGFR2; [6]) of 82%. It also gave an inhibition at 150 µM (Src; [4]) of 37.8%, an inhibition at 150 µM (Src; [5]) of 36.1% and an inhibition at 150 µM (Src; [6]) of 39.5%. It also gave an inhibition at 150 µM (PKA; [1]) of -10.5%, an inhibition at 150 µM (PKA; [2]) of -5.4% and an inhibition at 150 µM (PKA; [3]) of -8%. The inhibition at 150 µM (SGK1; [4]) was 54.5%, the inhibition at 150 µM (SGK1; [5]) was 54.4% and the inhibition at 150 µM (SGK1; [6]) was 54.5%. For the same compound, the inhibition at 150 µM (PAK2; [1]) was -34%, the inhibition at 150 µM (PAK2; [2]) was 1.5% and the inhibition at 150 µM (PAK2; [3]) was -16.2%. For the same compound, the inhibition at 150 µM (IRAK4; [4]) was 2.2%, the inhibition at 150 µM (IRAK4; [5]) was -1.2% and the inhibition at 150 µM (IRAK4; [6]) was 5.6%.
